Target: Cannabinoid receptor 2 (Homo sapiens) (UniProt P34972)
Assay: Inhibition of [3H]CP-55940 binding to N-terminal FLAG-tagged/C-terminal 6His-tagged recombinant human CB2 receptor overexpressed in baculovirus infected insect Sf21 cells assessed as reduction of receptor Bmax at 10 nM after 1 hr relative to control

Chain of Cannabinoid receptor 2 (Homo sapiens) (P34972 whole entry): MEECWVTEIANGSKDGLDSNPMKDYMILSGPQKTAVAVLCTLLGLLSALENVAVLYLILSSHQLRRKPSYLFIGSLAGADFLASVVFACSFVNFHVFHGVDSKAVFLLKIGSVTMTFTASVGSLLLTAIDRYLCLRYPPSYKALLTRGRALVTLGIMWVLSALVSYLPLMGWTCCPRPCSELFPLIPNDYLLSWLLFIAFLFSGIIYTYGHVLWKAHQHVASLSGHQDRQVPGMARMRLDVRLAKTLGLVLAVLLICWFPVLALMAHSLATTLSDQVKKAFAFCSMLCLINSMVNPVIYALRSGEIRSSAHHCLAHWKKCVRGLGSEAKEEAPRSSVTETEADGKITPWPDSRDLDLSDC

With `CC(C)(CCCCCCN=C=S)c1ccc2c(c1)OC(C)(C)[C@@H]1CC[C@@H](CO)C[C@@H]21` the inhibition was 75%.

— ChEMBL document CHEMBL3259803, “2012 Division of medicinal chemistry award address. Trekking the cannabinoid road: a personal perspective” (J Med Chem, 2014)
